Test results as given in patent US20030134859A1 (SANKYO COMPANY, LIMITED, priority 2000, published 2003).
Counter-ions that a name gives are not always drawn.

The molecules below were run on human colon cancer cells COL-2-JCK (assay: Inhibition of colony forming activity in human colon cancer cells). Conditions: Homo sapiens, 240 h; 1 μM test compound; 10 days; sum of colony areas vs control; read-out: Inhibition Rate (%) against the colony forming activity.
Type: cell-based
Outline: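 COL-2-JCK cells seeded at 300 cells/well and grown 10 days at 37 °C, 5% CO2 with compound at 1 μM final (0.1% DMSO). Colonies stained with crystal violet in formalin; inhibition % = (1 − treated/control colony area)×100.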

Molecule | inhibition at 1 µM
O=C(Nc1ccc(-c2ccccc2)cc1)c1cc([N+](=O)[O-])ccc1Cl [Example 2, N-(4-Phenylphenyl)-(2-chloro-5-nitrophenyl)carboxamide] | 8%
Cc1cnc(NC(=O)c2cc([N+](=O)[O-])ccc2Cl)s1 [Example 4, N-(5-Methylthiazol-2-yl)-(2-chloro-5-nitrophenyl)carboxamide] | 62%
O=C(Nc1cccc(-c2ccccc2)c1)c1cc([N+](=O)[O-])ccc1Cl [Example 5, N-(3-Phenylphenyl)-(2-chloro-5-nitrophenyl)carboxamide] | 26%
COc1ccc(NC(=O)c2cc([N+](=O)[O-])ccc2Cl)cc1-c1ccccc1 [Example 6, N-(4-Methoxy-3-phenyl)phenyl-(2-chloro-5-nitrophenyl)carboxamide] | 22%
O=C(Nc1ccccc1-c1ccccc1)c1cc([N+](=O)[O-])ccc1Cl [Example 7, N-(2-Phenylphenyl)-(2-chloro-5-nitrophenyl)carboxamide] | 24%
CCCCCc1ccc(NC(=O)c2cc([N+](=O)[O-])ccc2Cl)cc1 [Example 16, N-(4-Pentylphenyl)-(2-chloro-5-nitrophenyl)carboxamide] | 48%
CC(C)(C)c1cc(NC(=O)c2cc([N+](=O)[O-])ccc2Cl)cc(C(C)(C)C)c1O [Example 29, N-(3,5-Di-t-butyl-4-hydroxyphenyl)-(2-chloro-5-nitrophenyl)carboxamide] | 41%
O=C(Nc1cccc(NS(=O)(=O)c2ccccc2)c1)c1cc([N+](=O)[O-])ccc1Cl [Example 30, N-(3-Benzensulfonylaminophenyl)-(2-chloro-5-nitrophenyl)carboxamide] | 42%
O=C(Nc1nc(-c2ccccc2)cs1)c1cc([N+](=O)[O-])ccc1Cl [Example 35, N-(4-Phenylthiazol-2-yl)-(2-chloro-5-nitrophenyl)carboxamide] | 15%
O=C(Nc1nc(-c2cccnc2)cs1)c1cc([N+](=O)[O-])ccc1Cl [Example 37, N-[4-(3-Pyridyl)thiazol-2-yl)-(2-chloro-5-nitrophenyl)carboxamide] | 52%
O=C(Nc1nc(-c2ccccn2)cs1)c1cc([N+](=O)[O-])ccc1Cl [Example 38, N-[4-(2-Pyridyl)thiazol-2-yl)-(2-chloro-5-nitrophenyl)carboxamide] | 99.9%

What follows are molecules tested on Rat white adipocytes (assay: Inhibition of the differentiation of adipocytes (Oil Red O)). Conditions: 100 nM test compound; 5 days; Oil Red O ABS550; control = 100%, blank = 0%; Table 3.
Type: cell-based
Outline: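 Rat white preadipocytes, 5,000 cells/well, given differentiation medium with compound at 100 nM final (0.1% DMSO) for 5 days at 37 °C. Lipid stained with Oil Red O, eluted in DMSO, read at 550 nm; differentiation % relative to DMSO control (100%) and blank (0%).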

Molecule | Rate of Differentiation (%)
CCCCCCCCN(CCCC)c1ccc(-c2ccc(NC(=O)c3cc([N+](=O)[O-])ccc3Cl)cc2)cc1.Cl [Example 223, N-[4-[4-(N-Butyl-N-octylamino)phenyl]phenyl]-(2-chloro-5-nitrophenyl)carboxamide mono-hydrochloride] | 35.0%
N-(Ethoxyphenyl)-(2-chloro-5-nitrophenyl)carboxamide [Example 229] | 62.7%

Same assay, conditions: Rattus norvegicus, Adipocyte, 120 h, 100 nM test compound; 5 days; Oil Red O ABS550; control = 100%, blank = 0%; Table 3; read-out: Rate of Differentiation (%)

Molecule | activity at 0.1 µM
Cc1ccc2nc(-c3ccc(NC(=O)c4cc([N+](=O)[O-])ccc4Cl)cc3)sc2c1 [Example 10, N-[4-(6-Methylbenzothiazol-2-yl)phenyl]-(2-chloro-5-nitrophenyl)carboxamide] | 51.1%
Nc1ccc(NC(=O)c2cc([N+](=O)[O-])ccc2Cl)cc1 [Example 58, N-(4-Aminophenyl)-(2-chloro-5-nitrophenyl)carboxamide mono-hydrochloride] | 51.7%
CC(C)(C)OC(=O)Nc1ccc(-c2ccc(NC(=O)c3cc([N+](=O)[O-])ccc3Cl)cc2)cc1 [Example 87, N-[4-[4-(tert-Butoxycarbonylamino)phenyl]phenyl]-(2-chloro-5-nitrophenyl)carboxamide] | 75.2%
O=C(Nc1cccc(O)c1)c1cc([N+](=O)[O-])ccc1Cl [Example 191, N-(3-Hydroxyphenyl)-(2-chloro-5-nitrophenyl)carboxamide] | 63.4%
CCCCCCNc1ccc(-c2ccc(NC(=O)c3cc([N+](=O)[O-])ccc3Cl)cc2)cc1 [Example 195, N-[4-[4-(N-Hexylamino)phenyl]phenyl]-(2-chloro-5-nitrophenyl)carboxamide] | 36.5%
CCCCCCN(C)c1ccc(-c2ccc(NC(=O)c3cc([N+](=O)[O-])ccc3Cl)cc2)cc1 [Example 196, N-[4-[4-(N-Hexyl-N-methylamino)phenyl]phenyl]-(2-chloro-5-nitrophenyl)carboxamide] | 53.4%
CCCCCCN(CC)c1ccc(-c2ccc(NC(=O)c3cc([N+](=O)[O-])ccc3Cl)cc2)cc1 [Example 197, N-[4-[4-(N-Ethyl-N-hexylamino)phenyl]phenyl]-(2-chloro-5-nitrophenyl)carboxamide] | 45.7%
CCCCCCCCNc1ccc(-c2ccc(NC(=O)c3cc([N+](=O)[O-])ccc3Cl)cc2)cc1 [Example 219, N-[4-[4-(N-Octylamino)phenyl]phenyl]-(2-chloro-5-nitrophenyl)carboxamide] | 36.6%
CCCCCCCCN(CCCCCC)c1ccc(-c2ccc(NC(=O)c3cc([N+](=O)[O-])ccc3Cl)cc2)cc1 [Example 220, N-[4-[4-(N-Hexyl-N-octylamino)phenyl]phenyl]-(2-chloro-5-nitrophenyl)carboxamide mono-hydrochloride] | 38.4%
CCCCCCCCN(CCCC)c1ccc(-c2ccc(NC(=O)c3cc([N+](=O)[O-])ccc3Cl)cc2)cc1 [Example 222, N-[4-[4-(N-Butyl-N-octylamino)phenyl]phenyl]-(2-chloro-5-nitrophenyl)carboxamide] | 48.6%
CCCCCCCCN(CCC)c1ccc(-c2ccc(NC(=O)c3cc([N+](=O)[O-])ccc3Cl)cc2)cc1 [Example 224, N-[4-[4-(N-Octyl-N-propylamino)phenyl]phenyl]-(2-chloro-5-nitrophenyl)carboxamide] | 40.9%
CCCCCCCCN(CC)c1ccc(-c2ccc(NC(=O)c3cc([N+](=O)[O-])ccc3Cl)cc2)cc1 [Example 225, N-[4-[4-(N-Ethyl-N-octylamino)phenyl]phenyl]-(2-chloro-5-nitrophenyl)carboxamide] | 45.9%
O=C(Nc1ccc(N2CCN(C(=O)c3ccncc3)CC2)cc1)c1cc([N+](=O)[O-])ccc1Cl [Example 228, N-[4-[4-(Pyridin-4-ylcarbonyl)piperazin-1-yl]phenyl]-(2-chloro-5-nitrophenyl)carboxamide] | 17.5%
O=C(Nc1ccc(CCO)cc1)c1cc([N+](=O)[O-])ccc1Cl [Example 230, N-[4-(2-Hydroxyethyl)phenyl]-(2-chloro-5-nitrophenyl)carboxamide] | 48.9%
O=C(Nc1ccc(-n2ccnc2)cc1)c1cccc(NC(=O)c2cc([N+](=O)[O-])ccc2Cl)c1 [Example 231, N-[[3-[4-(Imidazol-1-yl)phenyl]aminocarbonyl]phenyl]-(2-chloro-5-nitrophenyl)carboxamide] | 20.1%
CCN(c1ccc(NS(=O)(=O)c2ccc(NC(=O)c3cc([N+](=O)[O-])ccc3Cl)cc2)cc1)C(C)C [Example 232, N-[[4-[4-(N-Ethyl-N-isopropylamino)phenyl]aminosulfonyl]phenyl]-(2-chloro-5-nitrophenyl)carboxamide] | 45.4%
Nc1nc(-c2cccc(NC(=O)c3cc([N+](=O)[O-])ccc3Cl)c2)cs1 [Example 233, N-[3-(2-Amiothiazol-4-yl)phenyl]-(2-chloro-5-nitrophenyl)carboxamide] | 47.4%
CC(C)(C)OC(=O)Nc1cccc(-c2csc(NC(=O)c3cc([N+](=O)[O-])ccc3Cl)n2)c1 [Example 234, N-[4-(3-tert-Butoxycarbonylaminophenyl)thiazol-2-yl]-(2-chloro-5-nitrophenyl)carboxamide] | 60.5%
CS(=O)(=O)N(c1ccc(-c2ccc(NC(=O)c3cc([N+](=O)[O-])ccc3Cl)cc2)cc1)S(C)(=O)=O [Example 235, N-[4-[4-(N,N-Dimethanesulfonylamino)phenyl]phenyl]-(2-chloro-5-nitrophenyl)carboxamide] | 3.6%
CC(O)c1cccc(NC(=O)c2cc([N+](=O)[O-])ccc2Cl)c1 (centres unmarked) [Example 239, N-[3-(1-Hydroxyethyl)phenyl]-(2-chloro-5-nitrophenyl)carboxamide] | 52.8%
O=C(Nc1ccc(NC(=S)Nc2cccnc2)cc1)c1cc([N+](=O)[O-])ccc1Cl [Example 257, N-[4-[(Pyridin-3-yl)aminothiocarbonylamino]phenyl]-(2-chloro-5-nitrophenyl)carboxamide] | 59.8%
O=C(Nc1ccc(-c2ccc(NC(=S)Nc3ccncc3)cc2)cc1)c1cc([N+](=O)[O-])ccc1Cl [Example 258, N-[4-[4-[(Pyridin-4-yl)aminothiocarbonylamino]phenyl]phenyl]-(2-chloro-5-nitrophenyl)carboxamide] | 39%
O=C(Nc1ccc(NC(=S)Nc2ccncc2)cc1)c1cc([N+](=O)[O-])ccc1Cl [Example 259, N-[4-[(Pyridin-4-yl)aminothiocarbonylamino]phenyl]-(2-chloro-5-nitrophenyl)carboxamide] | 56.5%
NCCc1ccc(NC(=O)c2cc([N+](=O)[O-])ccc2Cl)cc1 [Example 267, N-[4-(2-Aminoethyl)phenyl]-(2-chloro-5-nitrophenyl)carboxamide] | 47.3%
O=C(Nc1ccc(CCNC(=S)Nc2cccnc2)cc1)c1cc([N+](=O)[O-])ccc1Cl [Example 273, N-[4-[2-(Pyridin-3-yl)aminothiocarbonylaminoethyl]phenyl]-(2-chloro-5-nitrophenyl)carboxamide] | 47.9%
